Results published in patent US20110275559A1, “Long-Acting Y2 and/or Y4 Receptor Agonists” (Novo Nordisk A/S, priority 2008, published 2011).
*1 amine or outer side, *2 acyl side, *3 side chain or, on linkers, in order; H or OH if unused. Where a SMILES comes first, the peptide text is derived from it. Side-chain parts run from the residue outwards. The star is where a group is joined. C20 diacid = O=C(O)CCCCCCCCCCCCCCCCCCC(=O)*; γGlu = O=C(O)[C@H](CCC(=O)[*:2])N[*:1]; Trx = NC[C@H]1CC[C@H](C(=O)O)CC1; AEEA = NCCOCCOCC(=O)O

Biological target: T1, Y4 receptor (Homo sapiens, UniProt P50391)
T1 construct: host or cells: ACTOne HEK-293 cells
Assay: Y4 receptor ACTOne based FLIPR assay (cAMP biosensor)
Type: cell-based
Source text: ACTOne™ is an easily scaleable cAMP biosensor HTS platform for measurement of Gs and Gi coupled 7™ receptor signalling from BD Biosciences (San Jose, Calif.). The cells express a biosensor developed around a modified rat olfactory cyclic nucleotide gated (CNG) calcium channel—a fairly non-discriminatory ion channel that responds to cAMP and cGMP. The CNG has been engineered to be cAMP selective and thus function as a cAMP responsive biosensor that signals through calcium or membrane potential responsive dyes. Y2 or Y4 receptor expressing ACTOne HEK-293 cells are obtained from BD Biosciences. The cells are loaded with a calcium responsive dye that only distributes in the cytoplasm. Probenecid, an inhibitor of the organic anion transporter is added to prevent the dye from leaving the cell. A phosphodiesterase inhibitor is added to prevent formatted cAMP from being degraded. Isoproterenol (an β1/β2 agonist) is added to activate the adenylate cyclase. When an Y2 or Y4 receptor agonist is added, the adenylate cyclase is inactivated. The decreased calcium concentration in the cytoplasm is then detected as an increase in fluorescence. Together with the test substance, Isoproterenol at a concentration matching EC80, is added to all wells. • The cells are plated out in Greiner 384-well plates. […] The plates are covered with tinfoil to avoid light (the dye can be excited by the daylight, which results in higher baseline and variation). • The FLIPR (FLIPRtetra from Molecular Devices, CA, USA) adds 1 μl sample and 1 μl isoproterenol (0.05 μM final concentration) at the same time. • The fluorescence signal from the wells is measured 330 seconds after sample addition on the FLIPR.

T1 sequence (P50391 whole entry): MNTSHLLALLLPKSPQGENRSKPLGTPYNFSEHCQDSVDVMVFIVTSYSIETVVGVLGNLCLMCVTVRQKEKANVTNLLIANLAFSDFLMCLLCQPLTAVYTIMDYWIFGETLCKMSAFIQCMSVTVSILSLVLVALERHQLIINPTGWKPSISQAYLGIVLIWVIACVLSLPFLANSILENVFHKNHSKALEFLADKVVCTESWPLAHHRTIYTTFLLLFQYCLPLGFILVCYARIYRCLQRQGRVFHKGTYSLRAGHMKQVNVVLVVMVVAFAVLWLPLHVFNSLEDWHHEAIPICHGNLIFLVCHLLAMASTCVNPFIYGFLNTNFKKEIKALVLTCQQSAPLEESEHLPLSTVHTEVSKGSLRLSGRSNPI

CC(C)C[C@H](NC(=O)[C@H](CCC(N)=O)NC(=O)[C@H](CCC(=O)O)NC(=O)[C@@H]1CCCN1C(=O)[C@H](CCCCNC(=O)COCCOCCNC(=O)COCCOCCNC(=O)CC[C@H](NC(=O)[C@H]1CC[C@H](CNC(=O)CCCCCCCCCCCCCCCCCCC(=O)O)CC1)C(=O)O)NC(=O)[C@H](C)NC(=O)[C@H](CC(N)=O)NC(=O)[C@H](CC(=O)O)NC(=O)CNC(=O)[C@@H]1CCCN1C(=O)[C@H](Cc1ccc(O)cc1)NC(=O)[C@@H](NC(=O)[C@@H]1CCCN1C(=O)[C@H](CCC(=O)O)NC(=O)[C@H](CC(C)C)NC(=O)[C@@H]1CCCN1C(=O)[C@H](C)N)C(C)C)C(=O)N[C@@H](C)C(=O)N[C@@H](CCC(N)=O)C(=O)N[C@@H](Cc1ccc(O)cc1)C(=O)N[C@@H](C)C(=O)N[C@@H](C)C(=O)N[C@@H](CC(=O)O)C(=O)N[C@@H](CC(C)C)C(=O)N[C@@H](CCCNC(=N)N)C(=O)N[C@@H](CCCNC(=N)N)C(=O)N[C@@H](Cc1ccc(O)cc1)C(=O)N[C@@H](CC(C)C)C(=O)N[C@@H](CC(N)=O)C(=O)N[C@H](C(=O)N[C@@H](CC(C)C)C(=O)N[C@H](C(=O)N[C@@H](CCCNC(=N)N)C(=O)N[C@@H](CCC(N)=O)C(=O)N[C@@H](CCCNC(=N)N)C(=O)N[C@@H](Cc1ccc(O)cc1)C(N)=O)[C@@H](C)O)C(C)C [SEQ ID NO: 15, N-epsilon13-[2-(2-{2-[2-(2-{2-[(S)-4-Carboxy-4-({trans-4-[(19-carboxynonadecanoylamino)methyl]cyclohexanecarbonyl}amino)butyrylamino]-eth-oxy}ethoxy)acetylamino]ethoxy}ethoxy)acetyl][Lys13,Leu17,Leu28,Val30,Gln34]hPP(1-36)] (H-APLEPVYPGDNAK([AEEA-AEEA-γGlu-Trx-C20 diacid])PEQLAQYAADLRRYLNVLTRQRY-NH2; N-terminus and C-terminus assumed)
EC50: 7 nM
